In ChEMBL document CHEMBL1201862, “PubChem BioAssay data set” (2004):
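1) Cells in 96-well plates. 2) Compound, 48 h, 5 concentrations. 3) Linear interpolation between surrounding doses. 4) Unreached endpoint = highest concentration. Here, GI50 denotes the concentration required for 50% inhibition of growth.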 Calls of active or inactive are those of the source. Rule as the data show it: active = GI50 up to about 1.1 µM and inactive = higher.

Legend:
Assay in all cases: NCI anticancer screen, dose series, 48 h
OVCAR-8 = test system: OVCAR-8
PC-3 = test system: PC-3
SK-MEL-28 = test system: SK-MEL-28
HOP-62 = test system: HOP-62
SF-268 = test system: SF-268
HCT-116 = test system: HCT-116
RXF 393 = test system: RXF 393
IGROV-1 = test system: IGROV-1
HCT-15 = test system: HCT-15
M14 = test system: M14
SF-539 = test system: SF-539
COLO 205 = test system: COLO 205
SK-OV-3 = test system: SK-OV-3
NCI/ADR-RES = test system: NCI/ADR-RES
RPMI-8226 = test system: RPMI-8226
Malme-3M = test system: Malme-3M
SN12C = test system: SN12C
SW-620 = test system: SW-620
CCRF-CEM = test system: CCRF-CEM
MCF7 = test system: MCF7
SK-MEL-2 = test system: SK-MEL-2
SNB-19 = test system: SNB-19
HCC 2998 = test system: HCC 2998
CAKI-1 = test system: CAKI-1
HT-29 = test system: HT-29
MDA-N = test system: MDA-N
NCI-H522 = test system: NCI-H522
Hs-578T = test system: Hs-578T
MDA-MB-231 = test system: MDA-MB-231
BT-549 = test system: BT-549
UACC-257 = test system: UACC-257
SK-MEL-5 = test system: SK-MEL-5
786-0 = test system: 786-0
HL-60 = test system: HL-60
UACC-62 = test system: UACC-62
SR = test system: SR
DU-145 = test system: DU-145
OVCAR-5 = test system: OVCAR-5
ACHN = test system: ACHN
TK-10 = test system: TK-10
A549 = test system: A549
MOLT-4 = test system: MOLT-4
MDA-MB-435 = test system: MDA-MB-435
KM12 = test system: KM12
K562 = test system: K562
UO-31 = test system: UO-31
NCI-H226 = test system: NCI-H226
T47D = test system: T47D
NCI-H460 = test system: NCI-H460
NCI-H23 = test system: NCI-H23
OVCAR-4 = test system: OVCAR-4
HOP-92 = test system: HOP-92
OVCAR-3 = test system: OVCAR-3
SF-295 = test system: SF-295
EKVX = test system: EKVX
U-251 = test system: U-251
A498 = test system: A498
SNB-75 = test system: SNB-75
LOX IMVI = test system: LOX IMVI

**Q.** `Cc1ccc(/C=N\NC(=O)c2ccncc2)s1` was tested. Which GI50 (OVCAR-8) did it give?
**A.** > 100 µM (inactive)

**Q.** And the GI50 (PC-3)?
**A.** > 100 µM (inactive)

**Q.** And the GI50 (SK-MEL-28)?
**A.** > 100 µM (inactive)

**Q.** What about the GI50 (HOP-62) of the same compound?
**A.** > 100 µM (inactive)

**Q.** And the GI50 (SF-268)?
**A.** > 100 µM (inactive)

**Q.** What about the GI50 (HCT-116) of the same compound?
**A.** > 100 µM (inactive)

**Q.** What about the GI50 (RXF 393) of the same compound?
**A.** > 100 µM (inactive)

**Q.** What about the GI50 (IGROV-1) of the same compound?
**A.** > 100 µM (inactive)

**Q.** What about the GI50 (HCT-15) of the same compound?
**A.** > 100 µM

**Q.** What about the GI50 (M14) of the same compound?
**A.** > 100 µM (inactive)

**Q.** What about the GI50 (SF-539) of the same compound?
**A.** > 100 µM (inactive)

**Q.** What about the GI50 (COLO 205) of the same compound?
**A.** > 100 µM (inactive)

**Q.** What about the GI50 (SK-OV-3) of the same compound?
**A.** > 100 µM (inactive)

**Q.** And the GI50 (NCI/ADR-RES)?
**A.** > 100 µM (inactive)

**Q.** What about the GI50 (RPMI-8226) of the same compound?
**A.** > 100 µM (inactive)

**Q.** And the GI50 (Malme-3M)?
**A.** > 100 µM (inactive)

**Q.** What about the GI50 (SN12C) of the same compound?
**A.** > 100 µM (inactive)

**Q.** And the GI50 (SW-620)?
**A.** > 100 µM (inactive)

**Q.** What about the GI50 (CCRF-CEM) of the same compound?
**A.** > 100 µM (inactive)

**Q.** And the GI50 (MCF7)?
**A.** > 100 µM (inactive)

**Q.** What about the GI50 (SK-MEL-2) of the same compound?
**A.** > 100 µM (inactive)

**Q.** What about the GI50 (SNB-19) of the same compound?
**A.** > 100 µM (inactive)

**Q.** What about the GI50 (HCC 2998) of the same compound?
**A.** > 100 µM (inactive)

**Q.** What about the GI50 (CAKI-1) of the same compound?
**A.** > 100 µM (inactive)

**Q.** What about the GI50 (HT-29) of the same compound?
**A.** > 100 µM (inactive)

**Q.** What about the GI50 (MDA-N) of the same compound?
**A.** > 100 µM (inactive)

**Q.** And the GI50 (NCI-H522)?
**A.** > 100 µM (inactive)

**Q.** What about the GI50 (Hs-578T) of the same compound?
**A.** > 100 µM (inactive)

**Q.** And the GI50 (MDA-MB-231)?
**A.** > 100 µM (inactive)

**Q.** And the GI50 (BT-549)?
**A.** > 100 µM (inactive)

**Q.** And the GI50 (UACC-257)?
**A.** > 100 µM (inactive)

**Q.** What about the GI50 (SK-MEL-5) of the same compound?
**A.** > 100 µM (inactive)

**Q.** And the GI50 (786-0)?
**A.** > 100 µM (inactive)

**Q.** What about the GI50 (HL-60) of the same compound?
**A.** > 100 µM (inactive)

**Q.** And the GI50 (UACC-62)?
**A.** > 100 µM (inactive)

**Q.** And the GI50 (SR)?
**A.** > 100 µM (inactive)

**Q.** And the GI50 (DU-145)?
**A.** > 100 µM (inactive)

**Q.** What about the GI50 (OVCAR-5) of the same compound?
**A.** > 100 µM (inactive)

**Q.** And the GI50 (ACHN)?
**A.** > 100 µM (inactive)

**Q.** What about the GI50 (TK-10) of the same compound?
**A.** > 100 µM (inactive)

**Q.** And the GI50 (A549)?
**A.** > 100 µM (inactive)

**Q.** And the GI50 (MOLT-4)?
**A.** > 100 µM (inactive)

**Q.** And the GI50 (MDA-MB-435)?
**A.** > 100 µM (inactive)

**Q.** What about the GI50 (KM12) of the same compound?
**A.** > 100 µM (inactive)

**Q.** What about the GI50 (K562) of the same compound?
**A.** > 100 µM (inactive)

**Q.** And the GI50 (UO-31)?
**A.** > 100 µM (inactive)

**Q.** And the GI50 (NCI-H226)?
**A.** > 100 µM (inactive)

**Q.** What about the GI50 (T47D) of the same compound?
**A.** > 100 µM (inactive)

**Q.** What about the GI50 (NCI-H460) of the same compound?
**A.** > 100 µM (inactive)

**Q.** And the GI50 (NCI-H23)?
**A.** > 100 µM (inactive)

**Q.** And the GI50 (OVCAR-4)?
**A.** > 100 µM (inactive)

**Q.** What about the GI50 (HOP-92) of the same compound?
**A.** > 100 µM (inactive)

**Q.** And the GI50 (OVCAR-3)?
**A.** > 100 µM (inactive)

**Q.** And the GI50 (SF-295)?
**A.** > 100 µM (inactive)

**Q.** And the GI50 (EKVX)?
**A.** > 100 µM (inactive)

**Q.** And the GI50 (U-251)?
**A.** > 100 µM (inactive)

**Q.** And the GI50 (A498)?
**A.** > 100 µM (inactive)

**Q.** `Clc1c2nc3ccccc3c-2[nH]c2ccccc12` was tested. Which GI50 (OVCAR-8) did it give?
**A.** 29 µM (inactive)

**Q.** And the GI50 (PC-3)?
**A.** 17.5 µM (inactive)

**Q.** And the GI50 (SK-MEL-28)?
**A.** 52.4 µM (inactive)

**Q.** And the GI50 (HOP-62)?
**A.** 47.1 µM (inactive)

**Q.** And the GI50 (SF-268)?
**A.** 64.3 µM (inactive)

**Q.** And the GI50 (HCT-116)?
**A.** 8.55 µM (inactive)

**Q.** And the GI50 (SNB-75)?
**A.** 39.9 µM (inactive)

**Q.** And the GI50 (IGROV-1)?
**A.** 9.68 µM (inactive)

**Q.** And the GI50 (LOX IMVI)?
**A.** 11.7 µM (inactive)

**Q.** And the GI50 (HCT-15)?
**A.** 14.4 µM

**Q.** And the GI50 (M14)?
**A.** 36.2 µM (inactive)

**Q.** And the GI50 (SF-539)?
**A.** 13.7 µM (inactive)

**Q.** What about the GI50 (COLO 205) of the same compound?
**A.** 2.86 µM (inactive)

**Q.** And the GI50 (NCI/ADR-RES)?
**A.** 23.4 µM (inactive)

**Q.** What about the GI50 (RPMI-8226) of the same compound?
**A.** 7.96 µM (inactive)

**Q.** And the GI50 (Malme-3M)?
**A.** 30.7 µM (inactive)

**Q.** What about the GI50 (SN12C) of the same compound?
**A.** 32.7 µM (inactive)

**Q.** And the GI50 (SW-620)?
**A.** 8.83 µM (inactive)

**Q.** And the GI50 (CCRF-CEM)?
**A.** 19.2 µM (inactive)

**Q.** And the GI50 (MCF7)?
**A.** 6.28 µM (inactive)

**Q.** What about the GI50 (SK-MEL-2) of the same compound?
**A.** > 100 µM (inactive)

**Q.** And the GI50 (SNB-19)?
**A.** > 100 µM (inactive)

**Q.** What about the GI50 (HCC 2998) of the same compound?
**A.** 24.5 µM (inactive)

**Q.** What about the GI50 (CAKI-1) of the same compound?
**A.** 9.16 µM (inactive)

**Q.** What about the GI50 (HT-29) of the same compound?
**A.** 4.3 µM (inactive)

**Q.** And the GI50 (MDA-N)?
**A.** 3.57 µM (inactive)

**Q.** And the GI50 (NCI-H522)?
**A.** 20.1 µM (inactive)

**Q.** And the GI50 (Hs-578T)?
**A.** 33.7 µM (inactive)

**Q.** What about the GI50 (MDA-MB-231) of the same compound?
**A.** 11.7 µM (inactive)

**Q.** What about the GI50 (BT-549) of the same compound?
**A.** 64.1 µM (inactive)

**Q.** What about the GI50 (UACC-257) of the same compound?
**A.** 50.2 µM (inactive)

**Q.** And the GI50 (SK-MEL-5)?
**A.** 3.95 µM (inactive)

**Q.** What about the GI50 (786-0) of the same compound?
**A.** 32.5 µM (inactive)

**Q.** What about the GI50 (HL-60) of the same compound?
**A.** 15.6 µM (inactive)

**Q.** What about the GI50 (UACC-62) of the same compound?
**A.** 48.8 µM (inactive)

**Q.** And the GI50 (SR)?
**A.** 4.37 µM (inactive)

**Q.** And the GI50 (DU-145)?
**A.** 22 µM (inactive)

**Q.** What about the GI50 (OVCAR-5) of the same compound?
**A.** > 100 µM (inactive)

**Q.** And the GI50 (ACHN)?
**A.** 21.3 µM (inactive)

**Q.** And the GI50 (TK-10)?
**A.** 98.4 µM (inactive)

**Q.** And the GI50 (A549)?
**A.** 34 µM (inactive)

**Q.** What about the GI50 (MOLT-4) of the same compound?
**A.** 2.9 µM (inactive)

**Q.** What about the GI50 (MDA-MB-435) of the same compound?
**A.** 5.11 µM (inactive)

**Q.** And the GI50 (KM12)?
**A.** 3.94 µM (inactive)

**Q.** And the GI50 (UO-31)?
**A.** 7.98 µM (inactive)

**Q.** What about the GI50 (T47D) of the same compound?
**A.** 17.7 µM (inactive)

**Q.** What about the GI50 (NCI-H460) of the same compound?
**A.** 27.2 µM (inactive)

**Q.** What about the GI50 (NCI-H23) of the same compound?
**A.** 11.6 µM (inactive)

**Q.** What about the GI50 (OVCAR-4) of the same compound?
**A.** > 100 µM (inactive)

**Q.** What about the GI50 (HOP-92) of the same compound?
**A.** > 100 µM (inactive)

**Q.** What about the GI50 (OVCAR-3) of the same compound?
**A.** 69.7 µM (inactive)

**Q.** And the GI50 (SF-295)?
**A.** < 0.01 µM (active)

**Q.** What about the GI50 (EKVX) of the same compound?
**A.** 10.6 µM (inactive)

**Q.** What about the GI50 (U-251) of the same compound?
**A.** 50.4 µM (inactive)

**Q.** And the GI50 (A498)?
**A.** 43 µM (inactive)
